Source: patent US5874461A, “Use of Nebivolol as an anti-atherogenic” (priority 1995, dated 1999)

Legend:
C6 glioma cells [1] = test: Fluorescence measurement of intracellular peroxides in C6 glioma cells after glutamate; format: cell-based
Text: (§1) Competitive inhibition by glutamate of cystine uptake in certain cells leads to glutathione depletion and oxidative stress. This oxidative stress model has been described for glial C6 glioma cells (Kato et al., 1992. A mechanism for glutamate toxicity in the C6 glioma cells involving inhibition of cystine uptake leading to glutathione depletion. Neurosci. 48:903-914) and for the neuronal cell line N18RE105 (Murphy et al., 1989. Glutamate toxicity in a neuronal cell line involves inhibition of cystine transport leading to oxidative stress. Neuron 2:1547-1558).
(§2) Cell culture: The C6 glioma cell line (American Type Culture Collection, CCL 107) was cultivated in DMEM supplemented with 2 or 4 mM glutamine, 1 mM pyruvate and 5 or 10% heat-inactivated foetal calf serum. Cultures were maintained at 37° C. in an air/5~10% CO2, water saturated atmosphere.
(§3) Glutathione depletion and evaluation of drugs as antioxidants: Experiments were carried out with cultures plated at 30,000~50,000 cells/cm^2 in 24-well culture plates (for toxicity and lipid peroxide measurements) or at 136,000 cells/cm^2 in 96-well culture plates (for GSH determination). After 8-24 hr, the cultures were switched to culture medium in the absence or presence of the cystine uptake inhibitor glutamate at a final concentration of 10 mM. In order to test drugs for inhibition of oxidative stress, the drug was added together with glutamate (final concentration of solvent was 0.01% hydroxypropyl-β-cylodextrin, 0.1% DMSO). Intracellular glutathione levels were measured after 6~8 hr, lipid peroxides were measured after 14~20 hr, and toxicity and protection were analysed after 48 hr using an LDH assay according to the method of Bergmeyer and Bernt (UV-assay with pyruvate and NADH. In: Methods of Enzymatic Analysis. 1974. H. U. Bergmeyer, ed. Acad. Press, New York, 2nd Ed., pp 574-579).
Fluorescence measurement of intracellular peroxides: Formation of intracellular peroxides was detected using 6-carboxy-2',7'-dichlorodihydrofluorescin diacetate, di(acetoxymethyl ester) (C-DCDHF, Molecular Probes). C-DCDHF was dissolved in DMSO at a concentration of 10 mM and stored at -70° C. under nitrogen. After exposure of the culture to the glutathione depleting agents, the cells were loaded with 10 μM C-DCDHF for one hour at 37° C. Medium was aspirated off, PBS was added to the cells, and plates were read in a Cytofluor II microplate reader (PerSeptive Biosystems). Excitation and emission wavelength were selected with a 485/530 nm filter pair. The results were expressed in relative fluorescence units/μg protein.

C6 glioma cells [2] = test: GSH content in C6 glioma cultures after glutamate; format: cell-based
Text: as §1, §2, §3
Determination of GSH content in C6 glioma cultures: GSH levels were analysed by a micromethod, essentially as described by Vandeputte et al. (A microtiterplate assay for total glutathione and glutathione disulfide contents in cultured/isolated cells: performance study of a new miniaturised protocol. 1994. Cell Biol. Toxicol. 10:415-421), with a modification in the washing and homogenisation procedures. Cells (in 96-well plates) were washed with PBS, were homogenised in 50 μl 10 mM HCl containing 1.3% 5-sulfosalicylic acid, and the homogenate was centrifuged at 1200×g for 10 min at 4° C. Forty μl of the supernatant was transferred to a well of a 96-well plate and 200 μl reagent (1 mM 5,5'-dithiobis-(2-nitrobenzoic acid), 0.34 mM NADPH and 6.3 mM EDTA in 143 mM phosphate buffer pH 7.4) was added. After 5 min equilibration to room temperature the reaction was started by adding 40 μl glutathione reductase (8.5 IU/ml 143 mM phosphate buffer, 6.3 mM EDTA pH 7.4). NADPH oxidation was followed at 414 nm for 5 minutes with a Multiskan MCC/340 (Labsystems), and the change in absorbance (DA) per min was calculated. The glutathione content was deduced from a standard curve ranging from 0.2 to 2 nmol commercial GSH per test (DA/min plotted versus concentration).

C6 glioma cells [3] = test: Protection of C6 glioma cells from glutathione depletion-mediated oxidative stress (toxicity, LDH assay); format: cell-based; conditions: Rattus norvegicus, C6 glioma, 48 h, read-out: LDH release, % of total LDH
Text: as §1, §2, §3

β-1 = conditions: EP-0,334,429; cited from earlier work
[4] = test system: primary embryonic hippocampal cultures; test: VitE complementation (vitE depletion) test on primary neuronal cultures; format: cell-based, rats; conditions: for rescue of survival of vitE depleted cultures: 10^-7 M and 10^-6 M
Procedure: Primary embryonic hippocampal cultures were prepared essentially as described previously (Pauwels et al., Van Aschouw, H. P., Peeters, L., Moeremans, M., Leysen, J. E. (1992) Chronic treatment with sabeluzole protects cultured rat brain neurons from the neurotoxic effects of excitatory amino acids. Synapse, 12:271-280). Hippocampal formations of rats at embryonic day 17 were dissected and dissociated in 0.05% trypsin, 0.1 mg/ml DNase I in DMEM (Dulbecco Modified Eagle Medium). Heat-inactivated horse serum (HS) was added to a concentration of 4%, and the cells were centrifuged, washed with DMEM, and resuspended in DMEM/Ham's F12 (3:1) containing 10% HS. The cells were plated at a density of 4×10^5 cells/cm^2 in poly L-lysine (0.001%) precoated multiwell-24 plates. On day 1 in culture, the medium was changed to chemically defined CDM-R12 medium (DMEM-HEPES/Ham's F12 (3:1) containing 0.26% bovine serum albumin, 30 nM sodium selenite, 3 nM 3,3',5 triiodo-L-thyronine, 0.35 μM retinol, 0.3 μM retinol acetate, 2.3 μM DL-a-tocopherol, 2.1 μM DL-a-tocopherol acetate, 3.6 μM linolenic acid, 3.6 μM linoleic acid, 0.125% human transferrin, […], 57.7 nM corticosterone, 49 U/I insulin, 0.4 μM biotin, 10 μM L-carnitine, 83 μM D(+)-galactose, 3.3 μM glutathione, 10 μM ethanolamine, 0.1 mM putrescine; Romijn, H. J., van Huizen, F., Wolters, P. S. (1984) Towards an improved serum-free, chemically defined medium for long-term culturing of cerebral cortex tissue. Neurosci. Behav. Rev., 8:301-334). Acute and prolonged pretreatment of the, cultures was essentially as described previously (Pauwels et al., 1992). Drugs were dissolved, and diluted in 10% or 1% hydroxypropyl-β-cyclodextrin such that the final concentrations of the solvent in the acute and chronic exposures were 0.1% and 0.01% respectively. Compound A as used in the following examples is [(RRSR)+(RRRS)+(SSSR) +(SSRS)]-α-[[[2-(chroman-2-yl)-2-hydroxy-ethyl]amino]methyl]-6-hydroxy-2-chromanmethanol ethanedioate (1:1).
For vitE depletion experiments, primary cultures were set up as above, but on day 1 in culture, the medium was changed to chemically defined CDM-R12 medium with (control) or without DL-a-tocopherol (vitE) and DL-a-tocopherol acetate, in the presence or absence of test coumpound. […] Addition of compounds could rescue the cultures. […] The EC50 for complementation of vitE refers to the concentration of the compound required to restore culture survival to 50% of the survival seen for the culture grown in vitE supplemented medium. Seven concentrations of each compound were tested in triplicate, the number of independent experiments is indicated in the table, and the mean EC50 -value±SD was calculated.
Primary neuronal cultures depend on the presence of the antioxidant vitE in the culture medium for survival in vitro. When vitE depleted medium is used to grow the cultures, survival drops to ±20% of control. Compounds with antioxidative properties are able to complement the lack of vitE, and as such can when added to the culture medium, rescue vitE devoid cultures. Several nebivolol derivatives were tested at 10^-7 M and 10^-6 M in the vitE depletion test on primary neuronal cultures.
When nebivolol derivatives were administered during culture, the cultures could be rescued to a certain extent. 100% vitE complementation refers to the survival of a cell culture which is indifferent from a vitE containing cell culture.
When hydroxynebivolol was administered during culture, the cultures could be rescued. The EC50 refers to the concentration at which the culture is rescued for 50%, as measured by cytoplasmic LDH activity.

[5] = atenolol, propanolol, prazosin, hydralazine and its own (SRRR) enantiomer; EP-0,334,429; cited from earlier work
[6] = glutamate 10 mM, without or with compound 1 μM

N[C@@H](CCC(=O)O)C(=O)O [glutamate, reference compound]
increase in toxic intracellular peroxides (C6 glioma cells [1]; 10 mM glutamate): ~6 fold
Intracellular peroxides (mean ± SD, n) (C6 glioma cells [1]; [6]): 525 ± 57 Relative fluorescence units/μg
intracellular glutathione levels (C6 glioma cells [2]; 10 mM glutamate, 6 hr or more): sharp reduction in intracellular glutathione levels
GSH content (C6 glioma cells [2]; [6]): 296 ± 26 pmol/well
cytotoxicity at 10000 µM (C6 glioma cells [3]): 93.2 ± 1.3%

O[C@H](CNC[C@@H](O)[C@H]1CCc2cc(F)ccc2O1)[C@@H]1CCc2cc(F)ccc2O1 [Compound 1-nebivolol, (SRRR) α,α'-iminobis(methylene)bis[6-fluoro-2-chroman-methanol]]
β-1 blocking activity (β-1): potent and selective β-1 blocking agent
% vitE complementation ([4]; 10^-6 M): 24 ± 26%
% vitE complementation ([4]; 10^-7 M): 22 ± 20%
rescue of survival of vitE depleted cultures [4]: able to rescue survival of vitE depleted cultures to a certain extent

O[C@@H](CNC[C@H](O)[C@H]1CCc2cc(F)ccc2O1)[C@@H]1CCc2cc(F)ccc2O1 [d-nebivolol, (RSSS) α,α'-iminobis(methylene)bis[6-fluoro-2-chroman-methanol]]
β-1 blocking activity (β-1): not to be a potent β-1 blocking agent
potentiation of antihypertensive agents [5]: potentiator for a series of antihypertensive agents
% vitE complementation ([4]; 10^-6 M): 19 ± 22%
% vitE complementation ([4]; 10^-7 M): 12 ± 17%
rescue of survival of vitE depleted cultures [4]: able to rescue survival of vitE depleted cultures to a certain extent
